# Experimental data reported in US20050234046A1 (Kalypsys, Inc., priority 2004, published 2005).
# pEC50: −log10 of the molar value.
# Key:
# Assay in all cases: Transient transfection (transactivation) assay in CV-1 cells, GAL4-PPAR chimera, luciferase reporter
# Type in all cases: cell-based
# PPAR delta = target: T1, PPAR delta (Homo sapiens, UniProt Q03181)
# T1 construct: expressed in transfected cells; host or cells: CV-1 cells
# T1 sequence (Q03181 211-439 limits assumed): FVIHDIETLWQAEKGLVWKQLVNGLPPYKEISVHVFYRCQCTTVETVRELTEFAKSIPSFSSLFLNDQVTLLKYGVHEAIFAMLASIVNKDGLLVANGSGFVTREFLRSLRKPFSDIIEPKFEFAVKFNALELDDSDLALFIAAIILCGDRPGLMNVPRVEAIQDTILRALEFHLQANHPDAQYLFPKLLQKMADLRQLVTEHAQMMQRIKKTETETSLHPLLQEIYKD
# PPAR alpha = target: T2, PPAR alpha (Homo sapiens, UniProt Q07869)
# T2 construct: expressed in transfected cells; host or cells: CV-1 cells
# T2 sequence (Q07869 239-466 limits assumed): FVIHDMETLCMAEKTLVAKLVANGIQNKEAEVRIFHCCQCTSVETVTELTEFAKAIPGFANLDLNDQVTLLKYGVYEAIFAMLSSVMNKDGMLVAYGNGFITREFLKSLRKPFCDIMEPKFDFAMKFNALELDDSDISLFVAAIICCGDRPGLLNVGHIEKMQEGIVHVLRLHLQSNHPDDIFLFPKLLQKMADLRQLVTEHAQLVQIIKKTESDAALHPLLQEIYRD
# How it was run: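 EC50 and efficacy come from a luciferase read-out after 20-24 hours of compound exposure (vehicle 1% DMSO) in transiently transfected CV-1 cells. These cells express a GAL4-PPAR ligand-binding-domain chimera plus a reporter with four or five GAL4 binding sites, and are kept in phenol-red free DME with 5% delipidated calf serum.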
# PPAR gamma = target: T3, PPAR gamma (Homo sapiens, UniProt P37231)
# T3 construct: expressed in transfected cells; host or cells: CV-1 cells
# T3 sequence (P37231 238-503 limits assumed): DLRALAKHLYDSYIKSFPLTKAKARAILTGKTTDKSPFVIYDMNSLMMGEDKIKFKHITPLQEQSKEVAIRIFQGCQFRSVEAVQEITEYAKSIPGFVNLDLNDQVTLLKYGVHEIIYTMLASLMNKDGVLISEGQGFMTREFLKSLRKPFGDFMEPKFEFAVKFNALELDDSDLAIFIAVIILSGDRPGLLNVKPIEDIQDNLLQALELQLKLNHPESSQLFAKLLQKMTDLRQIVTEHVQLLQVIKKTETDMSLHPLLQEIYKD
pEC50 (PPAR delta),pEC50 (PPAR alpha),pEC50 (PPAR gamma),Structure (SMILES)
< 4.00,< 4.00,< 4.00,"Cc1cc(CC(=O)O)cc(S(=O)(=O)N2CCN(c3ccccc3F)CC2)c1 [Example 172, {3-[4-(2-Fluoro-phenyl)-piperazine-1-sulfonyl]-5-methyl-phenyl}-acetic acid]"
4.00 to 5.30,< 4.00,< 4.00,"Cc1cc(CC(=O)O)cc(S(=O)(=O)N2CCN(c3ccc(F)cc3)CC2)c1 [Example 173, {3-[4-(4-Fluoro-phenyl)-piperazine-1-sulfonyl]-5-methyl-phenyl}-acetic acid]"
< 4.00,< 4.00,< 4.00,"Cc1cc(CC(=O)O)cc(S(=O)(=O)N2CCN(c3ccccc3)CC2)c1 [Example 174, [3-Methyl-5-(4-phenyl-piperazine-1-sulfonyl)-phenyl]-acetic acid]"
> 5.30,4.00 to 5.30,4.00 to 5.30,"Cc1ccc(S(=O)(=O)N2CCN(c3ccc(Cl)c(Cl)c3)CC2)cc1CC(=O)O [Example 175, {5-[4-(3,4-Dichloro-phenyl)-piperazine-1-sulfonyl]-2-methyl-phenyl}-acetic acid]"
> 5.30,< 4.00,4.00 to 5.30,"Cc1ccc(S(=O)(=O)N2CCN(c3ccc(Cl)cc3)CC2)cc1CC(=O)O [Example 176, {5-[4-(4-Chloro-phenyl)-piperazine-1-sulfonyl]-2-methyl-phenyl}-acetic acid]"
4.00 to 5.30,< 4.00,4.00 to 5.30,"Cc1cccc(N2CCN(S(=O)(=O)c3ccc(C)c(CC(=O)O)c3)CC2C)c1 (stereo not drawn) [Example 177, [2-Methyl-5-(3-methyl-4-m-tolyl-piperazine-1-sulfonyl)-phenyl]-acetic acid]"
4.00 to 5.30,< 4.00,4.00 to 5.30,"Cc1ccc(S(=O)(=O)N2CCN(CCc3ccccc3)CC2)cc1CC(=O)O [Example 178, [2-Methyl-5-(4-phenethyl-piperazine-1-sulfonyl)-phenyl]-acetic acid]"
< 4.00,< 4.00,< 4.00,"COc1ccc(N2CCN(S(=O)(=O)c3ccc(C)c(CC(=O)O)c3)CC2)cc1OC [Example 179, {5-[4-(3,4-Dimethoxy-phenyl)-piperazine-1-sulfonyl]-2-methyl-phenyl}-acetic acid]"
4.00 to 5.30,< 4.00,4.00 to 5.30,"Cc1ccc(S(=O)(=O)N2CCN(c3ccc(F)cc3F)CC2)cc1CC(=O)O [Example 180, {5-[4-(2,4-Difluoro-phenyl)-piperazine-1-sulfonyl]-2-methyl-phenyl}-acetic acid]"
4.00 to 5.30,< 4.00,4.00 to 5.30,"Cc1ccc(S(=O)(=O)N2CCN(c3ccccc3)CC2)cc1CC(=O)O [Example 181, [2-Methyl-5-(4-phenyl-piperazine-1-sulfonyl)-phenyl]-acetic acid]"
> 5.30,4.00 to 5.30,> 5.30,"Cc1ccc(S(=O)(=O)N2CCN(c3ccc(C(F)(F)F)cn3)CC2)cc1CC(=O)O [Example 182, {2-Methyl-S-[4-(5-trifluoromethyl-pyridin-2-yl)-piperazine-1-sulfonyl]-phenyl}-acetic acid]"
> 5.30,4.00 to 5.30,4.00 to 5.30,"Cc1ccc(S(=O)(=O)N2CCN(c3ccc(C(F)(F)F)cc3)CC2)cc1CC(=O)O [Example 183, {2-Methyl-5-[4-(4-trifluoromethyl-phenyl)-piperazine-1-sulfonyl]-phenyl}-acetic acid]"
4.00 to 5.30,< 4.00,< 4.00,"O=C(O)Cc1cccc(S(=O)(=O)N2CCC(c3ccc(Cl)cc3)CC2)c1 [Example 184, {3-[4-(4-Chloro-phenyl)-piperidine-1-sulfonyl]-phenyl}-acetic acid]"
4.00 to 5.30,< 4.00,4.00 to 5.30,"Cc1cc(CC(=O)O)cc(S(=O)(=O)N2CCC(c3ccc(Cl)cc3)CC2)c1 [Example 185, {3-[4-(4-Chloro-phenyl)-piperidine-1-sulfonyl]-5-methyl-phenyl}-acetic acid]"
> 5.30,< 4.00,4.00 to 5.30,"O=C(O)CCc1cccc(S(=O)(=O)N2CCN(c3ccc(Cl)c(Cl)c3)CC2)c1 [Example 186, 3-{3-[4-(3,4-Dichloro-phenyl)-piperazine-1-sulfonyl]-phenyl}-propionic acid]"
> 5.30,< 4.00,4.00 to 5.30,"O=C(O)CCc1cccc(S(=O)(=O)N2CCN(c3ccc(Cl)cc3)CC2)c1 [Example 187, 3-{3-[4-(4-Chloro-phenyl)-piperazine-1-sulfonyl]-phenyl}-propionic acid]"
4.00 to 5.30,< 4.00,< 4.00,O=C(O)COc1cccc(S(=O)(=O)N2CCN(c3ccc(Cl)c(Cl)c3)CC2)c1 [Example 188]
< 4.00,< 4.00,4.00 to 5.30,"CC(C)(Oc1cccc(S(=O)(=O)N2CCN(c3ccc(Cl)c(Cl)c3)CC2)c1)C(=O)O [Example 189, 2-{3-[4-(3,4-Dichloro-phenyl)-piperazine-1-sulfonyl]-phenoxy}-2-methyl-propionic acid]"
4.00 to 5.30,< 4.00,< 4.00,"O=C(O)COc1cccc(S(=O)(=O)N2CCN(c3ccc(C(F)(F)F)cc3)CC2)c1 [Example 190, {3-[4-(4-Trifluoromethyl-phenyl)-piperazine-1-sulfonyl]-phenoxy}-acetic acid]"
4.00 to 5.30,4.00 to 5.30,4.00 to 5.30,"CC(C)(Oc1cccc(S(=O)(=O)N2CCN(c3ccc(C(F)(F)F)cc3)CC2)c1)C(=O)O [Example 191, 2-Methyl-2-{3-[4-(4-trifluoromethyl-phenyl)-piperazine-1-sulfonyl]-phenoxy}-propionic acid]"
4.00 to 5.30,< 4.00,< 4.00,"C[C@@H]1CN(c2ccc(OC(F)(F)F)cc2)C[C@H](C)N1S(=O)(=O)c1ccc(O)c(CCC(=O)O)c1 [Example 192, 3-{5-[2,6-Dimethyl-4-(4-trifluoromethoxy-phenyl)-piperazine-1-sulfonyl]-2-hydroxy-phenyl}-propionic acid]"
4.00 to 5.30,< 4.00,< 4.00,"C[C@@H]1CN(c2ccc(C(F)(F)F)cn2)C[C@H](C)N1S(=O)(=O)c1ccc(O)c(CCC(=O)O)c1 [Example 193, 3-{5-[2,6-Dimethyl-4-(5-trifluoromethyl-pyridin-2-yl)-piperazine-1-sulfonyl]-2-hydroxy-phenyl}-propionic acid]"
> 5.30,< 4.00,< 4.00,"COc1ccc(S(=O)(=O)N2[C@H](C)CN(c3ccc(C(F)(F)F)cn3)C[C@@H]2C)cc1CCC(=O)O [Example 194, 3-{5-[2,6-Dimethyl-4-(5-trifluoromethyl-pyridin-2-yl)-piperazine-1-sulfonyl]-2-methoxy-phenyl}-propionic acid]"
> 5.30,4.00 to 5.30,4.00 to 5.30,"Cc1cc(CC(=O)O)cc(S(=O)(=O)N2[C@@H](C)CN(c3ccc(C(F)(F)F)cn3)C[C@@H]2C)c1 [Example 195, {3-[2,6(S,S)-Dimethyl-4-(5-trifluoromethyl-pyridin-2-yl)-piperazine-1-sulfonyl]-5-methyl-phenyl}-acetic acid]"
